The results in this text go back to PubChem BioAssay (NCI).

Among the test systems are OVCAR-4 ovarian; MDA-N; CAKI-1 renal; NCI-H23 lung; MDA-MB-231 breast; SNB-75 CNS; NCI-H522 lung; OVCAR-8 ovarian.
Assay in all cases: DTP human tumour cell line panel, 48 h

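Values below derive from 48-hour exposures of cells grown in 96-well plates, with endpoints linearly interpolated between the two concentrations bracketing the appropriate inhibition level. TGI marks complete inhibition of growth.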

As to `C=C(C)COc1cc(NC(=S)OC(C)C)ccc1Cl`, the TGI (in general, the concentration at which net growth stops) was 28.3 µM with OVCAR-4 ovarian; 31.5 µM with MDA-N; 28.7 µM in the assay with CAKI-1 renal; 31.3 µM in the assay with NCI-H23 lung; 29.5 µM in the assay on MDA-MB-231 breast; 29.8 µM in the assay with SNB-75 CNS. Further, the TGI in the assay with NCI-H522 lung was 29.1 µM; with OVCAR-8 ovarian, 30.7 µM.

As for `CC(=O)OCC1OC(O[C@H]2C=C[C@@H](C(=O)OCc3ccccc3)n3c(=O)n(-c4ccccc4)c(=O)n32)C(OC(C)=O)C(OC(C)=O)C1OC(C)=O` (stereo partly drawn), the TGI with OVCAR-4 ovarian was 6.89 µM; in the assay with MDA-N, 7.1 µM; in the assay with CAKI-1 renal it was 2.98 µM; with NCI-H23 lung, 9.02 µM; in the assay on MDA-MB-231 breast, 4.12 µM; in the assay on SNB-75 CNS, 23.5 µM. Besides, the TGI in the assay with NCI-H522 lung turned out to be 2.83 µM; with OVCAR-8 ovarian, 7.41 µM.

For the compound `Cc1cc(N=Cc2c(CO)cnc(C)c2O)c(N=Cc2c(CO)cnc(C)c2O)cc1C`, the TGI in the assay with OVCAR-4 ovarian, with MDA-N, with CAKI-1 renal, in the assay with NCI-H23 lung, in the assay on MDA-MB-231 breast and in the assay on SNB-75 CNS was above 100 µM throughout. Moreover, the concentration for total growth inhibition (TGI) in the assay with NCI-H522 lung and in the assay on OVCAR-8 ovarian was above 100 µM throughout.

With `CC(C)CC1N=C(OCc2ccccc2)OC1=O` (stereo not drawn), the TGI with OVCAR-4 ovarian, in the assay on MDA-N, in the assay with CAKI-1 renal, with NCI-H23 lung, in the assay with MDA-MB-231 breast and with SNB-75 CNS was above 100 µM in each case. For the same compound, the TGI with NCI-H522 lung and in the assay with OVCAR-8 ovarian was above 100 µM each time.

On to `COc1ccc2nc3cc(Cl)ccc3c(NCCCCCC(=O)NC(COc3ccc4ccc5cccnc5c4n3)COc3ccc4ccc5cccnc5c4n3)c2c1`, for which the TGI in the assay with OVCAR-4 ovarian stood at 99.8 µM; with MDA-N it was 45.7 µM; in the assay on CAKI-1 renal, 95.5 µM; in the assay with NCI-H23 lung, 48.6 µM; in the assay on MDA-MB-231 breast, 36.2 µM; with SNB-75 CNS, 35.4 µM. Further, the total growth inhibition concentration (TGI) in the assay on NCI-H522 lung is 81.1 µM; with OVCAR-8 ovarian, above 100 µM.

Take `C=C1CC[C@@H]2[C@](C)(COC(=O)CCC(=O)O)CCC[C@@]2(C)[C@@H]1CCC1=CC(=O)OC1`: the TGI with OVCAR-4 ovarian, in the assay on MDA-N, in the assay with CAKI-1 renal, in the assay on NCI-H23 lung, in the assay on MDA-MB-231 breast and in the assay with SNB-75 CNS was above 100 µM each time. The TGI with NCI-H522 lung and in the assay on OVCAR-8 ovarian was above 100 µM each time.

Take `CCCCCCCCCCCCCCCC(=O)OC1C(O)C(O)C(O)C(O)C12CO2` (stereo not drawn): the TGI is above 100 µM with OVCAR-4 ovarian; above 100 µM in the assay with MDA-N; 29.8 µM in the assay with CAKI-1 renal; above 100 µM in the assay with NCI-H23 lung; above 100 µM in the assay on MDA-MB-231 breast; 93.2 µM in the assay with SNB-75 CNS. The results for the TGI in the assay with NCI-H522 lung and in the assay on OVCAR-8 ovarian were above 100 µM and 57.5 µM, respectively.

With `Cc1ccc(-c2cc(=O)c(=O)[nH][nH]2)cc1`, the TGI with OVCAR-4 ovarian, with MDA-N, in the assay on CAKI-1 renal, in the assay on NCI-H23 lung, with MDA-MB-231 breast and in the assay with SNB-75 CNS was above 100 µM each time. Further, the TGI in the assay on NCI-H522 lung and in the assay with OVCAR-8 ovarian was above 100 µM each time.

As for `NS(=O)(=O)c1ccc(NC(=O)c2ccc3nc4ccccc4c(Nc4ccc(S(N)(=O)=O)cc4)c3c2)cc1`, the TGI in the assay on OVCAR-4 ovarian, in the assay with MDA-N, in the assay on CAKI-1 renal, with NCI-H23 lung, in the assay on MDA-MB-231 breast and in the assay on SNB-75 CNS was above 100 µM throughout. Also, the TGI in the assay on NCI-H522 lung and in the assay with OVCAR-8 ovarian was above 100 µM in each case.

On to `CCOC(=O)CC1Nc2ccccc2C12CCc1c([nH]c3ccccc13)C2C(=O)OCC` (stereo not drawn), for which the TGI with OVCAR-4 ovarian was above 100 µM; in the assay with MDA-N it was above 100 µM; with CAKI-1 renal, above 100 µM; in the assay with NCI-H23 lung it was above 100 µM; with MDA-MB-231 breast, above 100 µM; with SNB-75 CNS it was 4.72 µM. Moreover, the TGI in the assay with NCI-H522 lung and with OVCAR-8 ovarian was above 100 µM in each case.

In the case of `CN1CCc2c(sc3ncn(Nc4ccc(F)cc4)c(=N)c23)C1`, the TGI with OVCAR-4 ovarian, with MDA-N, in the assay on CAKI-1 renal, in the assay with NCI-H23 lung, in the assay with MDA-MB-231 breast and in the assay with SNB-75 CNS was above 100 µM in each case. Besides, the TGI in the assay on NCI-H522 lung and with OVCAR-8 ovarian was above 100 µM in each case.

As to `COc1cc(C(c2ccc3c(c2)OCO3)C2SCCCS2)cc(OC)c1OC` (stereo not drawn), the TGI in the assay with OVCAR-4 ovarian is 75.8 µM; in the assay on MDA-N, 1.77 µM; with CAKI-1 renal it was 20.1 µM; in the assay with NCI-H23 lung it was 51.8 µM; with MDA-MB-231 breast, 6.21 µM; in the assay on SNB-75 CNS it was 5.83 µM. Also, the TGI in the assay with NCI-H522 lung was determined as 5.87 µM; in the assay on OVCAR-8 ovarian it was 64.8 µM.

With `CC(C)C(=O)/C=C/c1c(Cl)cccc1Cl`, the TGI in the assay on OVCAR-4 ovarian is 9.4 µM; in the assay with MDA-N, 11.8 µM; with CAKI-1 renal it was 13.8 µM; in the assay on NCI-H23 lung it was 7.24 µM; in the assay on MDA-MB-231 breast, 8.94 µM; in the assay on SNB-75 CNS, 8.38 µM. Also, the values for the TGI with NCI-H522 lung and in the assay on OVCAR-8 ovarian were 3.11 µM and 13.6 µM, respectively.

Turning to `C=C(C)CCC(O)[C@](C)(O)[C@H]1[C@H](O)C[C@@]2(C)[C@@H]3CCc4c(cc(OC5OC(CO)C(O)C(O)C5O)c(O)c4C)C3(C)C(=O)C[C@]12C` (stereo partly drawn), the TGI in the assay on OVCAR-4 ovarian, with MDA-N, in the assay with CAKI-1 renal, in the assay on NCI-H23 lung, in the assay on MDA-MB-231 breast and in the assay with SNB-75 CNS was above 100 µM in each case. Moreover, the TGI in the assay with NCI-H522 lung and in the assay with OVCAR-8 ovarian was above 100 µM in each case.

On to `COc1cc(OC)c(/C=N\Nc2nc3ccccc3c(=O)n2-c2ccccc2)c(OC)c1`, for which the TGI in the assay on OVCAR-4 ovarian is above 86.1 µM; in the assay on MDA-N, 43.9 µM; with CAKI-1 renal it was 38.3 µM; in the assay with NCI-H23 lung, above 100 µM; in the assay on MDA-MB-231 breast, 65.5 µM; in the assay with SNB-75 CNS, above 100 µM. The values for the TGI with NCI-H522 lung and in the assay on OVCAR-8 ovarian were above 100 µM and above 64 µM, respectively.

As to `CC1(C)[C@H]2Cc3cc4nc5ccccn5c4cc3[C@@H]1C2`, the TGI with OVCAR-4 ovarian came to 26 µM; with MDA-N it was 33.4 µM; in the assay with CAKI-1 renal, 30 µM; with NCI-H23 lung, 32.4 µM; in the assay on MDA-MB-231 breast it was 27.1 µM; in the assay on SNB-75 CNS it was 31.6 µM. The TGI with NCI-H522 lung came to 21.9 µM; with OVCAR-8 ovarian it was 30.5 µM.
